Values quoted from earlier work in patent US20240352056A1, “Improved methods for production of cyclic guanosine-monophosphate analogues” (Mireca Medicines GmbH, priority 2021, published 2024).

What was measured:
[1] = tested on: cGMP-dependent protein kinase
[2] = tested on: cAMP-dependent protein kinase
[3] = tested on: rd1 and rd2 photoreceptors; details: rd1 and rd2 mouse retinitis pigmentosa models, in vitro and in vivo

Structure (SMILES)	antagonism of the activation of the cGMP-dependent protein kinase [1]	binding to cGMP-dependent protein kinase and stimulation of its phosphotransferase activity [1]	antagonism / inhibition of cAMP-dependent protein kinase [2]	also measured
O=c1c2nc(Br)n([C@@H]3O[C@@H]4CO[P@@](O)(=S)O[C@H]4[C@H]3O)c2nc2[nH]c(-c3ccccc3)cn12 [1a, Triethylammonium Rp-8-Bromo-β-phenyl-1,N2-ethenoguanosine-3′, 5′-cyclic monophosphorothioate]				neuroprotective effects in vivo (photoreceptors): potent neuroprotective effects in vivo; activity towards PKG (agonist or antagonist) (PKG): antagonistic activity towards PKG
Nc1nc2c(nc(Cl)n2[C@@H]2O[C@@H]3CO[P@@](O)(=S)O[C@H]3[C@H]2O)c(=O)[nH]1 [(Rp)-8-Cl-cGMPS, 8-chloroguanosine 3′, 5′-monophosphorothioate]	antagonized the activation of the cGMP-dependent protein kinase	bound to the enzyme without stimulation of its activity	weak inhibitor	selectivity for cGMP-dependent over cAMP-dependent protein kinase [1]: rather selective inhibitor of the cGMP-dependent protein kinase
Nc1nc2c(ncn2[C@@H]2O[C@@H]3COP(O)(=S)O[C@H]3[C@H]2O)c(=O)[nH]1 (stereo partly drawn) [(Rp)-cGMPS, guanosine 3′, 5′-monophosphorothioate]	antagonized the activation of the cGMP-dependent protein kinase	bound to the enzyme without stimulation of its activity	antagonized the activation of cAMP-dependent protein kinase	
Nc1nc2c(nc(Cl)n2[C@@H]2O[C@@H]3CO[P@@](O)(=S)O[C@H]3[C@H]2O)c(=O)[nH]1 [(Sp)-8-Cl-cGMPS, 8-chloroguanosine 3′, 5′-monophosphorothioate]		stimulated its phosphotransferase activity		
Nc1nc2c(ncn2[C@@H]2O[C@@H]3COP(O)(=S)O[C@H]3[C@H]2O)c(=O)[nH]1 (stereo partly drawn) [(Sp)-cGMPS, guanosine 3′, 5′-monophosphorothioate]		stimulated its phosphotransferase activity		
Nc1nc2c(nc(Br)n2[C@@H]2O[C@@H]3COP(O)(=S)O[C@H]3[C@H]2O)c(=O)[nH]1 (stereo partly drawn) [Rp-8-Br-cGMPS]				protection of photoreceptors [3]: protection of rd1 and rd2 photoreceptors
